pIC50: −log10 of the molar value.

The first assay has as its target T1, recombinant homomeric hASIC1a channels (Homo sapiens, UniProt P78348).
T1 construct: expressed in transfected cells; host or cells: Xenopus laevis oocytes (nuclear microinjection of expression vector such as pcDNA3)
T1 sequence (P78348 1-528): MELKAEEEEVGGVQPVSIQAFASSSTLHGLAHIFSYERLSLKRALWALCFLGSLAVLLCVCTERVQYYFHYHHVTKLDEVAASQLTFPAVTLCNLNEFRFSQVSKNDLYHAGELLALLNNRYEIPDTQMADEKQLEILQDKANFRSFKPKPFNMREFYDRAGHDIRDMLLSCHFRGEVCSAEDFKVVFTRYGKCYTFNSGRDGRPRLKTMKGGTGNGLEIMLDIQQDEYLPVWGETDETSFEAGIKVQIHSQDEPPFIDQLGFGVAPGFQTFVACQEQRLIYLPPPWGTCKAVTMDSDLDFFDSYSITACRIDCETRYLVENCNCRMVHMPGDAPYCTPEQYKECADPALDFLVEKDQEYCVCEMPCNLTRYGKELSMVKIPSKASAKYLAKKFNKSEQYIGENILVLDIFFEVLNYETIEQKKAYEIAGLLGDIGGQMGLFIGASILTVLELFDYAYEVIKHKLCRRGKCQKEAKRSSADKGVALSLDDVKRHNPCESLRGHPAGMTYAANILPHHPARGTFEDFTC
The assay is described as follows: Two-electrode voltage clamp in Xenopus laevis oocytes expressing gated ion channels (Example 4). The assay is classed as cell-based. The note with it: Table 1; generated using oocytes as in Example 4.
One may read the pIC50 as −log10 of the IC50, conventionally taken in molar units. As to `Cc1cc(OC2CCN(Cc3ccccc3F)CC2)c2cccc(F)c2n1` [Compound 2], the pIC50 was 5.00 to 7.00.

For `Cc1cc(OC2CCN(Cc3cccnc3)CC2)c2cccc(F)c2n1` [Compound 3], the pIC50 was 5.00 to 7.00. For the molecule `Cc1cc(OC2CC(C)(C)N(Cc3ccccc3)C(C)(C)C2)c2ccccc2n1` [Compound 4], the pIC50 was below 4.52. Same read-out and setting: to `Cc1cc(OC2CCN(Cc3ccccc3F)C(C)C2)c2ccccc2n1` (stereo not shown) [Compound 5] belongs 5.00 to 7.00; to `Cc1nc(OC2CCN(Cc3ccccc3)CC2)c2ccccc2n1` [Compound 7], 4.70 to 5.00; to `Cc1nc(OC2CCN(Cc3ccccc3F)CC2)c2ccccc2n1` [Compound 8], below 4.52.

Consider `Cc1nc(OC2CCN(Cc3ccccc3C#N)CC2)c2ccccc2n1` [Compound 9], for which the negative-log IC50 (pIC50) is below 4.52.

As for `C=CCOC(=O)N1CCC(Oc2nc(C)nc3ccccc23)CC1` [Compound 10], the pIC50 is 5.00 to 7.00. On the same count and under the same terms, to `COc1cccc2c(OC3CCN(Cc4ccccc4)CC3)cc(C)nc12` [Compound 11] belongs 5.00 to 7.00; to `O=C(O)c1cc(OC2CCN(Cc3ccccc3)CC2)c2ccccc2n1` [Compound 12], 4.52 to 4.70.

As to `COc1cccc(CN2CCC(Oc3cc(C)nc4ccccc34)CC2)c1` [Compound 14], the pIC50 was 5.00 to 7.00.

Turning to `Cc1cc(OC2CCN(C(C)c3ccccc3C(=O)O)CC2)c2cccc(F)c2n1` (stereo not shown) [Compound 15], the pIC50 is 5.00 to 7.00. Still for that read-out and setting: under `Cc1cc(OC2CCN(Cc3ccccc3C#N)CC2)c2cccc(F)c2n1` [Compound 17] stands 5.00 to 7.00. Consider `Cc1cc(OC2CCN(C(C)c3ccccc3C#N)CC2)c2cccc(F)c2n1` (stereo not shown) [Compound 18], for which the pIC50 was 4.52 to 4.70. On the same count and under the same terms, to `Cc1cc(OC2CCCN(Cc3ccccc3)C2)c2ccccc2n1` (stereo not shown) [Compound 19] belongs below 4.52; to `Cc1cc(O[C@H]2CCCN(Cc3ccccc3)C2)c2ccccc2n1` [Compound 20], below 4.52. Consider `Cc1cc(OC2CCN(Cc3ccccc3)CC2)c2cccc(O)c2n1` [Compound 21], for which the negative-log IC50 (pIC50) was below 4.52. Same read-out and setting: to `Cc1cc(OC2CCN(Cc3cccc(O)c3)CC2)c2ccccc2n1` [Compound 22] belongs 5.00 to 7.00; to `Cc1cc(OC2CCN(Cc3c(F)cccc3C(=O)O)CC2)c2cccc(F)c2n1` [Compound 23], below 4.52. The same measure, in the same setting: under `Cc1cc(OC2CCN(Cc3ccccc3C(=O)O)CC2)c2cc(O)ccc2n1` [Compound 24] stands below 4.52; under `Cc1cc(OC2CCN(Cc3cccnc3C(=O)O)CC2)c2cccc(F)c2n1` [Compound 25], below 4.52; under `Cc1cc(OC2CCN(Cc3ccc(O)cc3)CC2)c2cccc(F)c2n1` [Compound 26, 4-((4-(8-fluoro-2-methylquinolin-4-yloxy)piperidin-1-yl)methyl)phenol], 5.00 to 7.00.

Still in this assay, the particulars now being: Table 2; generated using oocytes as in Example 4.
In the case of `Cc1cc(OC2CCN(Cc3cccc(F)c3)CC2)c2ccccc2n1` [Compound 27], the pIC50 was 5.00 to 7.00. Still for that read-out and setting: to `Cc1cc(OC2CCN(Cc3ccccc3)CC2)c2cc(F)ccc2n1` [Compound 29] belongs 5.00 to 7.00; to `Cc1cc(OC2CCN(Cc3ccccc3C#N)CC2)c2cc(F)ccc2n1` [Compound 30], 4.70 to 5.00; to `Cc1cc(OC2CCN(Cc3ccccc3C(=O)O)CC2)c2cc(F)ccc2n1` [Compound 31], 4.70 to 5.00.

Take `COc1cc(F)cc2c(OC3CCN(Cc4ccccc4)CC3)cc(C)nc12` [Compound 32]: the pIC50 was 5.00 to 7.00. Still for that read-out and setting: to `COc1ccc(F)c2c(OC3CCN(Cc4ccccc4)CC3)cc(C)nc12` [Compound 33] belongs below 4.52; to `COc1cc(F)cc2c(OC3CCN(Cc4ccccc4C#N)CC3)cc(C)nc12` [Compound 34], below 4.52. Still for that read-out and setting: under `COc1ccc(F)c2c(OC3CCN(Cc4ccccc4C#N)CC3)cc(C)nc12` [Compound 35] stands below 4.52. Same read-out and setting: to `COc1cc(F)cc2c(OC3CCN(Cc4ccccc4C(=O)O)CC3)cc(C)nc12` [Compound 36, 2-[4-(6-Fluoro-8-methoxy-2-methyl-quinolin-4-yloxy)-piperidin-1-ylmethyl]-benzoic acid] belongs 5.00 to 7.00.

For the origin of these results see patent US20090023773A1, “COMPOSITIONS AND METHODS FOR MODULATING GATED ION CHANNELS” (PainCeptor Pharma Corporation, priority 2007, published 2009).
